Measured values published in ChEMBL document CHEMBL3390847, “Boronic acids in medicinal chemistry: anticancer, antibacterial and antiviral applications” (Medchemcomm, 2010).
Values after ≈ are worked out from the molar mass of the structure shown.

How the values were obtained:
[1] = target: T1, Proteasome subunit beta type-7 (Homo sapiens, UniProt Q99436); experiment: Inhibition of trypsin-like activity of proteasome beta7 subunit (unknown origin)
T1 sequence (Q99436 whole entry): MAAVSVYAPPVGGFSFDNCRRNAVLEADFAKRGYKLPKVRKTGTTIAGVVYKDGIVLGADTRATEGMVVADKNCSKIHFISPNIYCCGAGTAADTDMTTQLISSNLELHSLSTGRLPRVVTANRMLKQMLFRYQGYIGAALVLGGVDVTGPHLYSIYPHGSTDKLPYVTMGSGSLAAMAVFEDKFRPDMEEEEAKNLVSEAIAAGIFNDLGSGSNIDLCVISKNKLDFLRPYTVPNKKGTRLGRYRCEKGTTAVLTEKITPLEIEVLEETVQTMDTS

[2] = Inhibition of post-glutamyl peptide hydrolysis proteasome subunit (unknown origin); set-up: species or system Homo sapiens
[3] = target: T2, Proteasome Macropain subunit MB1 (Homo sapiens, UniProt P28074); experiment: Inhibition of chymotrypsin-like activity of proteasome beta5 subunit (unknown origin)
T2 sequence (P28074 whole entry): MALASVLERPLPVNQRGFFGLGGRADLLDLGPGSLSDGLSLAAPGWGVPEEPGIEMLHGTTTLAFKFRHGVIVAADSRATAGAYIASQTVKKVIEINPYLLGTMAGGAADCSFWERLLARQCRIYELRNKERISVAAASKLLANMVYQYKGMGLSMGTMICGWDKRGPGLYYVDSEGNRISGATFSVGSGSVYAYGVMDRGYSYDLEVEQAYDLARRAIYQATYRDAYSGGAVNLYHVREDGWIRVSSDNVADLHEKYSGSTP

[4] = Cytotoxicity against human 1-87 cells; format: functional, cell-based
Tubulin [5] = experiment: Inhibition of tubulin polymerization (unknown origin) after 30 mins; format: protein-complex assay, Homo sapiens
B16 = experiment: Cytotoxicity against mouse B16 cells; format: functional, cell-based
[6] = Inhibition of tubulin polymerization in rat A10 cells assessed as microtubule loss; format: cell-based
MCF7 = experiment: Cytotoxicity against human MCF7 cells; format: functional, cell-based
Staphylococcus aureus = experiment: Antimicrobial activity against Staphylococcus aureus […] after 18 hrs by broth macrodilution assay; format: functional
[7] = system: Staphylococcus epidermidis; experiment: Antimicrobial activity against Staphylococcus epidermidis ATCC 12228 after 18 hrs by broth macrodilution assay; format: functional; conditions: ATCC 12228, 18 h
Bacillus subtilis = experiment: Antimicrobial activity against Bacillus subtilis ATCC 23857 after 18 hrs by broth macrodilution assay; format: functional; conditions: ATCC 23857, 18 h
[8] = Inhibition of alpha-chymotrypsin (unknown origin); set-up: species or system Homo sapiens
Tubulin (Homo sapiens) = Tubulin (Homo sapiens) (UniProt P68371+Q9H4B7+P0DPH7+P68366+Q13509+Q71U36+P04350+Q3ZCM7+P07437+P68363+Q9BQE3+Q6PEY2+Q13885+Q9BVA1+Q9BUF5); experiment: Displacement of [3H]colchicine from tubulin (unknown origin) at 5 uM; format: protein-complex assay
Tubulin [9] = experiment: Inhibition of tubulin polymerization (unknown origin); format: protein-complex assay, Homo sapiens
[10] = Inhibition of AmpC beta-lactamase (unknown origin)
Moraxella catarrhalis = experiment: Antimicrobial activity against Moraxella catarrhalis after 18 hrs by broth macrodilution assay; format: functional
[11] = Cytotoxicity against human MCF10A cells; format: cell-based; conditions: MCF-10A
[12] = Cytotoxicity against human MCF12A cells; format: cell-based; conditions: MCF-12A
[13] = Inhibition of YFV recombinant NS3 protease expressed in Escherichia coli using Bz-nKRR-AMC as substrate after 30 mins; set-up: species or system Yellow fever virus
[14] = target: T3, Epidermal growth factor receptor (Homo sapiens, UniProt P00533); experiment: Inhibition of EGFR kinase (unknown origin) using poly(Glu:Tyr) as substrate at 1 uM
A-431 = experiment: Cytotoxicity against human A431 cells; format: functional
[15] = target: T3, Epidermal growth factor receptor; experiment: Inhibition of EGFR kinase (unknown origin) using poly(Glu:Tyr) as substrate

T3 sequence (P00533 whole entry): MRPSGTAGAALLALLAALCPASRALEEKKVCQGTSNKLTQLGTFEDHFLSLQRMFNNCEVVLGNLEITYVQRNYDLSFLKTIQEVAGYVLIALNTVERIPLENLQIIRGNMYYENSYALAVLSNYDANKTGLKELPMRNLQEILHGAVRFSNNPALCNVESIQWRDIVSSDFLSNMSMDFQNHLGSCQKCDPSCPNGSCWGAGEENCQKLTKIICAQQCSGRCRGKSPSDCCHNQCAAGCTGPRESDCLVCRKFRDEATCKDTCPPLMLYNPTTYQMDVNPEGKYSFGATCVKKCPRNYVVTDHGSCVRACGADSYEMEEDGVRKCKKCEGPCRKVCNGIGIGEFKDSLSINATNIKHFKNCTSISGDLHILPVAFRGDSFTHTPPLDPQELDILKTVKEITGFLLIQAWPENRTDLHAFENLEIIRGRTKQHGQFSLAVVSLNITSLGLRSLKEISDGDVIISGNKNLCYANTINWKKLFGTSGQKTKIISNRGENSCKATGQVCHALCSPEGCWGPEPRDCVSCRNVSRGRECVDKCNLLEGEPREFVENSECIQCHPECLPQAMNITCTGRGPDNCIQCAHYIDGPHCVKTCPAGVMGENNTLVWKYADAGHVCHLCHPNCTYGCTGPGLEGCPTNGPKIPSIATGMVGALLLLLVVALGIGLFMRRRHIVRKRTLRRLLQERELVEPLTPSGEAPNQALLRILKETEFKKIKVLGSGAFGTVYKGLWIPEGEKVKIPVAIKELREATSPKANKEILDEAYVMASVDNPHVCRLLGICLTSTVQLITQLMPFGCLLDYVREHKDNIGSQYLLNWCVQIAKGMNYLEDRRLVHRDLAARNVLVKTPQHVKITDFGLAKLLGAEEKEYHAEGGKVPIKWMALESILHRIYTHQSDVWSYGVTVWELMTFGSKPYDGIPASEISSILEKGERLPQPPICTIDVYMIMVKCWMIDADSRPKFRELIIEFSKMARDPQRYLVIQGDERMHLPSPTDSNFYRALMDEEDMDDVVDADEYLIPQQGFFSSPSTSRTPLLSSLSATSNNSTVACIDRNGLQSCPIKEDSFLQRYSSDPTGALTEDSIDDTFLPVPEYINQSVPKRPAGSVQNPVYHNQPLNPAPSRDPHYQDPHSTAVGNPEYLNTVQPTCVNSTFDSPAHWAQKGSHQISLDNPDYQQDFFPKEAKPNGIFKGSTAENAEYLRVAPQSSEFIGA

SMILES: CC(C)C[C@H](NC(=O)[C@H](Cc1ccccc1)NC(=O)[C@H](Cc1ccccc1)NC(=O)c1cnccn1)B1O[C@@H]2[C@H]3CC[C@H](C3(C)C)[C@]2(C)O1
- IC50 [1]: > 0.02 µM
- IC50 [2]: 0.00833 µM
- IC50 [3]: 0.4 nM

SMILES: COc1cc(/C=C\c2ccc(B(O)O)cc2)cc(OC)c1
- IC50 [4]: 9.1 µM
- IC50 (Tubulin [5]): 79 µM
- IC50 (B16): 12 µM

SMILES: COc1ccc(/C=C\c2cc(OC)c(OC)c(OC)c2)cc1O [COMBRETASTATIN A4]
- IC50 [4]: 0.0085 µM
- EC50 [6]: < 0.025 µM
- IC50 (MCF7): 0.032 µM
- IC50 (B16): 0.0046 µM

SMILES: COc1cc(/C=C\c2cccc(B(O)O)c2)cc(OC)c1
- IC50 [4]: 2 µM
- IC50 (Tubulin [5]): > 100 µM
- IC50 (B16): 1.8 µM

SMILES: CC(C)C[C@H](NC(=O)[C@H](Cc1ccc(O)cc1)NC(=O)[C@H](Cc1ccccc1)NC(=O)c1cnccn1)B(O)O
- IC50 [1]: > 0.02 µM
- IC50 [2]: 0.00401 µM
- IC50 [3]: 0.39 nM

SMILES: Clc1ccc(C(Oc2cccc3cccnc23)c2ccc(Cl)cc2)cc1
- MIC (Staphylococcus aureus): > 64 µg/mL
- MIC [7]: > 64 µg/mL
- MIC (Bacillus subtilis): > 64 µg/mL

SMILES: CC(C)C[C@H](NC(=O)[C@H](Cc1ccc2ccccc2c1)NC(=O)[C@H](CC(C)C)NC(=O)c1cnccn1)B1O[C@@H]2[C@H]3CC[C@H](C3(C)C)[C@]2(C)O1
- IC50 [1]: > 0.02 µM
- IC50 [2]: 0.00391 µM
- IC50 [3]: 0.38 nM

SMILES: OCc1ccccc1 [BENZYL ALCOHOL]
- Ki [8]: 10000 µM

SMILES: COc1ccc(/C=C\c2cc(OC)c(OC)c(OC)c2)cc1B(O)O
- IC50 [4]: 0.013 µM
- EC50 [6]: 0.058 µM
- IC50 (MCF7): 0.017 µM
- IC50 (Tubulin [5]): 22 µM
- inhibition (Tubulin (Homo sapiens)): 79%
- IC50 (B16): 0.0063 µM
- IC50 (Tubulin [9]): 1.5 µM

SMILES: COc1cc(C(=O)/C=C/c2cc(OC)c(OC)c(OC)c2)ccc1O
- EC50 [6]: 18 µM
- IC50 (MCF7): > 2.5 µM
- IC50 (Tubulin [9]): > 40 µM

SMILES: CC(=O)OCC1=C(C(=O)O)N2C(=O)[C@@H](NC(=O)Cc3cccs3)[C@H]2SC1 [CEPHALOTHIN]
- Ki [10]: 0.32 µM

SMILES: Clc1cccc(B(Oc2ccc(Cl)c3cccnc23)c2cccc(Cl)c2)c1
- MIC (Moraxella catarrhalis): ≤ 0.125 µg/mL
- MIC (Staphylococcus aureus): 0.5 µg/mL (≈ 1.21 µM)
- MIC [7]: 0.25 µg/mL (≈ 0.606 µM)
- MIC (Bacillus subtilis): 32 µg/mL (≈ 77.6 µM)

SMILES: C=CB(Oc1cccc2cccnc12)c1cccc(Cl)c1
- MIC (Moraxella catarrhalis): 4 µg/mL (≈ 13.6 µM)
- MIC (Staphylococcus aureus): 2 µg/mL (≈ 6.81 µM)
- MIC [7]: 1 µg/mL (≈ 3.41 µM)
- MIC (Bacillus subtilis): 4 µg/mL (≈ 13.6 µM)

SMILES: O=C(/C=C/c1ccc(I)cc1)c1ccc(OCB(O)O)cc1
- IC50 [11]: 38 µM
- IC50 [12]: 100 µM

SMILES: OB(O)c1ccccc1 [PHENYLBORONIC ACID]
- Ki [8]: 196 µM

SMILES: CCCC[C@H](NC(=O)c1ccccc1)C(=O)N[C@@H](CCCCN)C(=O)N[C@@H](CCCCN)C(=O)N[C@@H](CCCNC(=N)N)B(O)O
- Ki [13]: 0.05 µM

SMILES: CC(C)C[C@H](NC(=O)[C@H](Cc1ccc2ccccc2c1)NC(=O)[C@H](CC(C)C)NC(=O)c1cnccn1)B(O)O
- IC50 [1]: > 0.02 µM
- IC50 [2]: 0.00363 µM
- IC50 [3]: 0.08 nM

SMILES: COc1cc(/C=C\c2cccc(B(O)O)c2)cc(OC)c1OC
- IC50 [4]: 2.1 µM
- IC50 (Tubulin [5]): > 100 µM
- IC50 (B16): 0.49 µM

SMILES: CC(C)C[C@H](NC(=O)[C@H](Cc1ccc(O)cc1)NC(=O)[C@H](Cc1ccccc1)NC(=O)c1cnccn1)B1O[C@@H]2[C@H]3CC[C@H](C3(C)C)[C@]2(C)O1
- IC50 [1]: > 0.02 µM
- IC50 [2]: 0.00539 µM
- IC50 [3]: 0.34 nM

SMILES: CC1(C)[C@H]2CC3OB(COc4ccc5ncnc(Nc6cccc(Cl)c6)c5c4)O[C@@]3(C)[C@@H]1C2 (stereo partly drawn)
- inhibition [14]: 65%
- GI50 (A-431): 0.54 µM
- IC50 [15]: 0.2 µM
